Assay [1] has as its system K562 CRISPRi cells. The assay is described as follows: Cellular dye (TAMRA) retention assay by flow cytometry. In kind it is cell-based. As for the experimental part:
Untransduced (no virus or sgRNA^–) and sgRNA expression vector-transduced (sgRNA^+) K562 CRISPRi cells were mixed in a 1:1 ratio, plated in 48-well plates and incubated overnight. Cell mixtures were treated with the indicated TAMRA-linked compounds (300 μl final volume) and incubated for 24 h. Plates were placed over ice and 200 μl of each compound–cell mixture was transferred to a 96-well U-bottom plate. Cells were pelleted at 500g for 5 min and subsequently washed 2× with ice-cold FACS buffer (PBS + 1% BSA + 0.1% NaN3). Cells were resuspended in 200 μl of ice-cold FACS buffer and assessed using an Attune NxT (Thermo Fisher Scientific). Relative uptake of TAMRA-linked compounds was determined by comparing TAMRA fluorescence (561-nm excitation laser and 585/16-nm emission filter) between sgRNA^– and sgRNA^+ cells within each well.

In assay [2] the test system is human PBMCs. Nature of the assay: IL-2 secretion of stimulated PBMCs (sandwich ELISA). The format is cell-based. The arrangement: unit not given here.
Assay [3] concerns human PBMCs. Nature of the assay: Proliferation of anti-CD3/anti-CD28 stimulated PBMCs (120 h). In kind it is cell-based. The arrangement: PBMC cell proliferation: unit not given here.
Assay [4] addresses MTORC1. The note with it: read-out: Kd4 (drug binding to MTORC1 without FKBP); ref Banaszynski et al, PMID 15796538; cited from earlier work.
Assay [5] in a line: Cellular activity of FKBP-binding bifunctional kinase inhibitors, with or without RapaBlock. The format is cell-based.
The mark [6] stands for this setting: 0.005081 nM Rapamycin, +10 µM RapaBlock.
[7] abbreviates: 0.005081 nM Rapamycin, No RapaBlock.
[8] abbreviates: 0.015242 nM Rapamycin, +10 µM RapaBlock.
Setting [9] is: 0.015242 nM Rapamycin, No RapaBlock.
[10] abbreviates: 0.045725 nM Rapamycin, +10 µM RapaBlock.
Where [11] appears, read: 0.045725 nM Rapamycin, No RapaBlock.
Setting [12] is: 0.137174 nM Rapamycin, No RapaBlock.
Where [13] appears, read: 0.411523 nM Rapamycin, +10 µM RapaBlock.
Where [14] appears, read: 0.411523 nM Rapamycin, No RapaBlock.
Setting [15] is: 1.23457 nM Rapamycin, No RapaBlock.
Where [16] appears, read: 3.7037 nM Rapamycin, +10 µM RapaBlock.
Setting [17] is: 3.7037 nM Rapamycin, No RapaBlock.
Setting [18] is: 11.1111 nM Rapamycin, +10 μM RapaBlock.
[19] abbreviates: 11.1111 nM Rapamycin, No RapaBlock.
[20] abbreviates: 33.3333 nM Rapamycin, +10 μM RapaBlock.
The mark [21] stands for this setting: 33.3333 nM Rapamycin, No RapaBlock.
The mark [22] stands for this setting: 100 nM Rapamycin, +10 μM RapaBlock.

Structures are written as SMILES. Where “and” joins values, the source holds several entries; their conditions need not be identical. Equal values may be shown once.

With `CO[C@H]1C[C@@H]2CC[C@@H](C)[C@@](O)(O2)C(=O)C(=O)N2CCCC[C@H]2C(=O)O[C@H]([C@H](C)C[C@@H]2CC[C@@H](OCCOCc3cn(CCOCCOCCOCCOCCOCCOCCOCCOCCNC(=O)c4ccc(C(=O)[O-])c(-c5c6ccc(=[N+](C)C)cc-6oc6cc(N(C)C)ccc56)c4)nn3)[C@H](OC)C2)CC(=O)[C@H](C)/C=C(\C)[C@@H](O)[C@@H](OC)C(=O)[C@H](C)C[C@H](C)/C=C/C=C/C=C/1C` [RapaTAMRA], the “cellular retention (median fluorescence intensity)” value in assay [1] (after extensive washout) was “tenfold increase in median fluorescence intensity”.
On to `CO[C@H]1C[C@@H]2CC[C@@H](C)[C@@](O)(O2)C(=O)C(=O)N2CCCC[C@H]2C(=O)O[C@H]([C@H](C)C[C@@H]2CC[C@@H](O)[C@H](OC)C2)CC(=O)[C@H](C)/C=C(\C)[C@@H](O)[C@@H](OC)C(=O)[C@H](C)C[C@H](C)/C=C/C=C/C=C/1C` [Rapamycin], for which the IL-2 secretion in assay [2] (setting [6]) is 3684.01 and 3841.04 and 3311.59; in assay [2] (setting [7]), 3505.26 and 3941.8 and 3950.69; in assay [2] (setting [8]) it was 3960.64 and 4023.71 and 3669.35; in assay [2] (setting [9]), 3568.59 and 3802.04 and 3829; in assay [2] (setting [10]) it was 3856.22 and 4056.95 and 3791.84; in assay [2] (setting [11]) it was 3351.9 and 3536.4 and 3552.37. For the same compound, the IL-2 secretion in assay [2] (0.137174 nM Rapamycin, +10 µM RapaBlock) was 4033.13 and 3577.76 and 4020.83; in assay [2] (setting [12]), 2937.87 and 3159.28 and 3403.45; in assay [2] (setting [13]), 4004.34 and 3499.5 and 3861.19; in assay [2] (setting [14]), 2246.17 and 2618.32 and 2523.84; in assay [2] (1.23457 nM Rapamycin, +10 µM RapaBlock), 4301.65 and 4395.86 and 4103.8; in assay [2] (setting [15]) it was 1538.76 and 1946.24 and 1803.35. The IL-2 secretion in assay [2] (setting [16]) is 4066.89 and 3684.01 and 4230.73; in assay [2] (setting [17]), 1476.21 and 1624.34 and 1751.53; in assay [2] (setting [18]), 4063.23 and 3946.51 and 4144.88; in assay [2] (setting [19]) it was 1251.92 and 1234.65 and 1398.74; in assay [2] (setting [20]), 4013.77 and 3518.61 and 4247.74; in assay [2] (setting [21]), 908.82 and 1132.58 and 1090.71. Besides, the IL-2 secretion in assay [2] (setting [22]) was 4023.19 and 3609.68 and 3592.67; in assay [2] (100 nM Rapamycin, No RapaBlock), 580.372 and 339.335 and 575.923. Besides, the PBMC cell proliferation in assay [3] (setting [6]) was 90.8; in assay [3] (setting [7]) it was 89.3 and 86.4 and 86.7; in assay [3] (setting [8]), 94.6; in assay [3] (setting [9]) it was 70.2 and 84.2 and 80.1; in assay [3] (setting [10]) it was 99.9; in assay [3] (setting [11]), 58.9 and 71.7 and 68.2. Further, the PBMC cell proliferation in assay [3] (setting [12]) was 55.1 and 66 and 63.4; in assay [3] (setting [13]), 100.4; in assay [3] (setting [14]), 48.5 and 57.3 and 55.8; in assay [3] (setting [15]) it was 43.2 and 50.6 and 45.3; in assay [3] (setting [16]), 92 and 97.7; in assay [3] (setting [17]) it was 44.5 and 45.4 and 43.4. Besides, the PBMC cell proliferation was 99 and 90.8 and 96.3 in assay [3] (setting [18]); 42 and 45.8 and 42.6 in assay [3] (setting [19]); 96.2 and 95.1 and 85.5 in assay [3] (setting [20]); 41.2 and 44.7 and 42.3 in assay [3] (setting [21]); 73.2 and 69.6 and 68.3 in assay [3] (setting [22]); 32 and 34 and 31.5 in assay [3] (100 nM Rapamycin, No RapaBlock). For the same compound, in assay [4], the Kd is 26 µM.
In the case of `CO[C@H]1C[C@@H](C)C/C(C)=C/[C@@H](CCCC(=O)N2CCN(C(=O)c3ccc(C(=O)[O-])c(-c4c5ccc(=[N+](C)C)cc-5oc5cc(N(C)C)ccc45)c3)CC2)C(=O)C[C@H](O)[C@@H](C)[C@@H](/C(C)=C/[C@@H]2CC[C@@H](O)[C@H](OC)C2)OC(=O)[C@@H]2CCCCN2C(=O)C(=O)[C@]2(O)O[C@H]1[C@@H](OC)C[C@H]2C` [FK-TAMRA], the “Median TAMRA signal, fold change sgRNA+/sgRNA-” value in assay [1] (FKBP12 sg1, 1 nM compound) was 0.94 ×; in assay [1] (FKBP12 sg1, 100 nM compound) it was 0.17 ×; in assay [1] (FKBP12 sg2, 1 nM compound) it was 0.95 ×; in assay [1] (FKBP12 sg2, 100 nM compound), 0.23 ×; in assay [1] (NegCtrl sg, 1 nM compound), 1.00 ×; in assay [1] (NegCtrl sg, 100 nM compound), 1.00 ×.
In the case of `CCC(C)(C)C(=O)C(=O)N1CCCC[C@H]1C(=O)O[C@H](CCc1ccc(OC)c(OC)c1)c1cccc(NC(=O)CCC(=O)N2CCN(c3cc(Nc4ncc(C(=O)Nc5c(C)cccc5Cl)s4)nc(C)n3)CC2)c1` [SLF-Dasatinib], in assay [5], the “kinase inhibitor activity in cells” value is given as “did not have kinase inhibitor activity in cells”.

Source of the values: paper PMC9492542, “Brain-restricted mTOR inhibition with binary pharmacology” (Nature, 2022).
